Assay results: ChEMBL document CHEMBL4706656, “Ifenprodil Stereoisomers: Synthesis, Absolute Configuration, and Correlation with Biological Activity” (J Med Chem, 2021)

Legend:
[1] = target: T1, 5-hydroxytryptamine receptor 1A (Homo sapiens, UniProt P08908); test: Displacement of [3H]-8-OH-DPAT from human 5-HT1A receptor expressed in HEK293 cells incubated for 1 hr by radioligand binding assay; type: cell-based
T1 sequence (P08908 whole entry): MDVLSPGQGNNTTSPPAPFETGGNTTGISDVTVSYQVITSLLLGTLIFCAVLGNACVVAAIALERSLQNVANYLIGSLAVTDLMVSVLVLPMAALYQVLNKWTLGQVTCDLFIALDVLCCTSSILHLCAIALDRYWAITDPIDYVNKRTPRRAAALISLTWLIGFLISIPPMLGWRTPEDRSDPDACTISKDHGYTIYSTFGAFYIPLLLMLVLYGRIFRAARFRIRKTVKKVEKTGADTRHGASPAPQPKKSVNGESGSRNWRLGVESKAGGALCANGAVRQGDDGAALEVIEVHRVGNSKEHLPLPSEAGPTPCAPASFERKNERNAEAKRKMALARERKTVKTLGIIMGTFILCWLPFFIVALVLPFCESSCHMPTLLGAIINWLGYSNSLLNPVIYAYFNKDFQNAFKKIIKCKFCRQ

[2] = target: T2, Alpha-1A adrenergic receptor (Homo sapiens, UniProt P35348); test: Displacement of [3H]prazosin from alpha-1A adrenergic receptor (unknown origin)
T2 sequence (P35348 whole entry): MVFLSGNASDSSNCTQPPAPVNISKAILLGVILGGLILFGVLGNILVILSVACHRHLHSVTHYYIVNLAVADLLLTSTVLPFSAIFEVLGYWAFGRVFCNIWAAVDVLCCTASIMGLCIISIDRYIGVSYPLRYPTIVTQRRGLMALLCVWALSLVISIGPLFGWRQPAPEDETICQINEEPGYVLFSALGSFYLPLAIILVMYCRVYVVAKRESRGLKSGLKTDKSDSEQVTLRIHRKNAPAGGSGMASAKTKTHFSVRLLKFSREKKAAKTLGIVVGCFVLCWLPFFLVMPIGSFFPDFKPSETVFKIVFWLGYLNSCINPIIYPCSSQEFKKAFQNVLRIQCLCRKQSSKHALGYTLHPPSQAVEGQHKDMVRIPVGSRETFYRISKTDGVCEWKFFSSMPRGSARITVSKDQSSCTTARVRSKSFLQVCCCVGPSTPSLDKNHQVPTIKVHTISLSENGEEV

[3] = target: 5-hydroxytryptamine receptor 6 (Homo sapiens, UniProt P50406); test: Displacement of [3H]LSD from human 5-HT6 receptor expressed in HEK293 cells incubated for 1 hr by radioligand binding assay; type: cell-based
Sequence of 5-hydroxytryptamine receptor 6 (P50406 whole entry): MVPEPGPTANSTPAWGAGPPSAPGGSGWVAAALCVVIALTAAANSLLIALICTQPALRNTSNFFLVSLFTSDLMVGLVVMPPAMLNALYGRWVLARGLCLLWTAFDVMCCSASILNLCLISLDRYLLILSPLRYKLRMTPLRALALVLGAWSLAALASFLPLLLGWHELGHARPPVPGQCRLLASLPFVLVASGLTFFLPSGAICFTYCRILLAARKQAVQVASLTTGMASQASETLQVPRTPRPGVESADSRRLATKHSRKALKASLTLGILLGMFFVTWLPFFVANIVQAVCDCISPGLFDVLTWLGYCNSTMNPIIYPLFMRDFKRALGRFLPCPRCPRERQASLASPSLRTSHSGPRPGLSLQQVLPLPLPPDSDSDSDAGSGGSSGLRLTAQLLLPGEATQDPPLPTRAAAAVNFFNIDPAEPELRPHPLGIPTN

[4] = target: T3, 5-hydroxytryptamine receptor 2C (Homo sapiens, UniProt P28335); test: Binding affinity to 5-HT2C receptor (unknown origin) incubated for 1 hr by radioligand binding assay
T3 sequence (P28335 whole entry): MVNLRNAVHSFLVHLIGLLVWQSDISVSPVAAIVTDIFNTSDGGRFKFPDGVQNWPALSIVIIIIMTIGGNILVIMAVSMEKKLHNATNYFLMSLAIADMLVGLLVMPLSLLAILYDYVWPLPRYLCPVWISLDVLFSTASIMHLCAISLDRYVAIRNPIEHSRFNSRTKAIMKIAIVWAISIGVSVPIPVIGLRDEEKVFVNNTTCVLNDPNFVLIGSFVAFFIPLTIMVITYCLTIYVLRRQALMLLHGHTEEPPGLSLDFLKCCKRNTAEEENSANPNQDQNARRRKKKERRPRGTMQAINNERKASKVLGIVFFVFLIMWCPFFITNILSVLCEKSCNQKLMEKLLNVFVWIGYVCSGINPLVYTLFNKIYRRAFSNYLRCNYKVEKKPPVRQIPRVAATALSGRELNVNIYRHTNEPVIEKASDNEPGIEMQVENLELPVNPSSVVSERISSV

[5] = target: 5-hydroxytryptamine receptor 2A (Homo sapiens, UniProt P28223); test: Displacement of [3H]ketanserin from human 5-HT2A receptor expressed in CHO-K1 cells incubated for 1 hr by radioligand binding assay; type: cell-based
Sequence of 5-hydroxytryptamine receptor 2A (P28223 whole entry): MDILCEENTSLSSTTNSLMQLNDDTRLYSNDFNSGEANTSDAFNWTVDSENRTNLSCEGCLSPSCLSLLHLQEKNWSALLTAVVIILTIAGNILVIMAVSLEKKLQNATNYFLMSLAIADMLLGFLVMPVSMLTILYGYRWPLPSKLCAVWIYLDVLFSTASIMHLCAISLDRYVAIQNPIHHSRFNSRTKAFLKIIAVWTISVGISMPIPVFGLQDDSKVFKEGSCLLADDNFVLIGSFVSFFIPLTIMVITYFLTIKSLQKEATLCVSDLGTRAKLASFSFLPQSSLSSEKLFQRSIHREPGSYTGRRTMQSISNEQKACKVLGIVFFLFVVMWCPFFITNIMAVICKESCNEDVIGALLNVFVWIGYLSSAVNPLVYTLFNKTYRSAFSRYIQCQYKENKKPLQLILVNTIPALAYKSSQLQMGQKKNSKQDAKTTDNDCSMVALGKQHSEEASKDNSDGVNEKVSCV

[6] = target: 5-hydroxytryptamine receptor 2B (Homo sapiens, UniProt P41595); test: Binding affinity to 5-HT2B receptor (unknown origin) incubated for 1 hr by radioligand binding assay
Sequence of 5-hydroxytryptamine receptor 2B (P41595 whole entry): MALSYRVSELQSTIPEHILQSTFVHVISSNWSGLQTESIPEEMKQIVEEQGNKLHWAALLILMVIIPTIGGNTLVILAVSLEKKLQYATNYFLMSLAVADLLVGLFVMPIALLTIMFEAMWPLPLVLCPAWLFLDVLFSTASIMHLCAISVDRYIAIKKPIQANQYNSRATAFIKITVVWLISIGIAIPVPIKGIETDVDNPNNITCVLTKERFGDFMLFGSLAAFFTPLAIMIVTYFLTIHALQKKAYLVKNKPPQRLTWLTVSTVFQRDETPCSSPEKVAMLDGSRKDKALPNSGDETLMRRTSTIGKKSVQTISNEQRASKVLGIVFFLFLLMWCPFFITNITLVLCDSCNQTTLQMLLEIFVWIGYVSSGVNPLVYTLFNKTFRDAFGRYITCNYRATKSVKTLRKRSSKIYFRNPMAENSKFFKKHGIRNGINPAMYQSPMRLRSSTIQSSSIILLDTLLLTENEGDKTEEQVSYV

[7] = target: 5-hydroxytryptamine receptor 7 (Homo sapiens, UniProt P34969); test: Displacement of [3H]-5-CT from human 5-HT7B receptor expressed in HEK293 cells incubated for 1 hr by radioligand binding assay; type: cell-based
Sequence of 5-hydroxytryptamine receptor 7 (P34969 whole entry): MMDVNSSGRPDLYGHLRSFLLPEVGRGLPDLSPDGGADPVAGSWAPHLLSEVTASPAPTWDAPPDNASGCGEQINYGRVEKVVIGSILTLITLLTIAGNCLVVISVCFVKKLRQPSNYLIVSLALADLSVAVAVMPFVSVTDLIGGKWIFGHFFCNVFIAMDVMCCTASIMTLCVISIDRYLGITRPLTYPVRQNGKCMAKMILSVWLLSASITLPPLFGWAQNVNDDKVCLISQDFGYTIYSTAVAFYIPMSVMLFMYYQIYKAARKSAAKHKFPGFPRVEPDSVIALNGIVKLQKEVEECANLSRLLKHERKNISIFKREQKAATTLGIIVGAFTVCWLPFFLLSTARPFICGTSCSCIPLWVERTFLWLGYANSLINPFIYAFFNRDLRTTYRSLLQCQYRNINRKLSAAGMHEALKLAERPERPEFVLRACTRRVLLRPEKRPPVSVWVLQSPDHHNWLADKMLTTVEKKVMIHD

[8] = target: T4, Alpha-2A adrenergic receptor (Homo sapiens, UniProt P08913); test: Displacement of [3H]RX821002 from alpha-2A adrenergic receptor (unknown origin)
T4 sequence (P08913 whole entry): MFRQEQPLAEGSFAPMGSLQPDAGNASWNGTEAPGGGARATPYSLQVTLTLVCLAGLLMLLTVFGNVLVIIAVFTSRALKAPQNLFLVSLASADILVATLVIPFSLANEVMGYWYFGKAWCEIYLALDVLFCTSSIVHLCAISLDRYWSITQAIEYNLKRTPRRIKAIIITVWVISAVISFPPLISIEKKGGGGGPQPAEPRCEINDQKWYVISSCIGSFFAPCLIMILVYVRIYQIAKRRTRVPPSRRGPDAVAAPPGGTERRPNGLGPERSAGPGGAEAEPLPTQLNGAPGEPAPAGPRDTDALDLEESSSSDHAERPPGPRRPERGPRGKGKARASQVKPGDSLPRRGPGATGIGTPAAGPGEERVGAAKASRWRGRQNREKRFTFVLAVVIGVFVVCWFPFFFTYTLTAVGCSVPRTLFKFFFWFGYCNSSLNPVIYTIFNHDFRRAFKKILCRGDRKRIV

## C[C@H]([C@H](O)c1ccc(O)cc1)N1CCC(Cc2ccccc2)CC1
[1]
  Ki: > 1000 nM
[2]
  Ki: 370 nM
[3]
  Ki: > 10000 nM
[4]
  Ki: > 10000 nM
[5]
  Ki: 338 nM
[6]
  Ki: 708 nM
[7]
  Ki: > 10000 nM
[8]
  Ki: 5500 nM

## C[C@@H]([C@H](O)c1ccc(O)cc1)N1CCC(Cc2ccccc2)CC1 [(R,S)-IFENPRODIL]
[1]
  Ki: > 1000 nM
[2]
  Ki: 140 nM
[3]
  Ki: > 1000 nM
[4]
  Ki: 748 nM
[5]
  Ki: 421 nM
[6]
  Ki: 95 nM
[7]
  Ki: 513 nM
[8]
  Ki: 1600 nM

## C[C@@H]([C@@H](O)c1ccc(O)cc1)N1CCC(Cc2ccccc2)CC1 [(S)-IFENPRODIL]
[1]
  Ki: > 1000 nM
[2]
  Ki: 530 nM
[3]
  Ki: > 10000 nM
[4]
  Ki: > 10000 nM
[5]
  Ki: 369 nM
[6]
  Ki: > 1000 nM
[7]
  Ki: > 10000 nM
[8]
  Ki: 6100 nM

## C[C@H]([C@@H](O)c1ccc(O)cc1)N1CCC(Cc2ccccc2)CC1 [(S,R)-IFENPRODIL]
[1]
  Ki: 46 nM
[2]
  Ki: 27 nM
[3]
  Ki: > 1000 nM
[4]
  Ki: > 10000 nM
[5]
  Ki: 510 nM
[6]
  Ki: 66 nM
[7]
  Ki: > 10000 nM
[8]
  Ki: 2300 nM
